Experimental data taken from article PMC11272598, “RG7774 (Vicasinabin), an orally bioavailable cannabinoid receptor 2 (CB2R) agonist, decreases retinal vascular permeability, leukocyte adhesion, and ocular inflammation in animal models” (Frontiers in Pharmacology, 2024).
Values joined by “and” are separate entries in the source; they are usually repeats but may differ in a detail not shown here. Identical values can stand only once.

How the values were obtained:
[1] = system: retinal microglia migration; assay: Laser-induced CNV in rats, microglia volume on laser lesions; format: in vivo, Brown Norway rats
Experimental: Right eyes were transferred to a petri dish containing 10% neutral-buffered formalin (NBF) and fixed for 5 min at RT. Eyes were prepared in PBS^−/– by removing the anterior segments and carefully separating the retinas from the posterior segments (retinal pigment epithelium/choroid and sclera). Dissected retinas were cut into petals, transferred to 2 × 24 well plates containing fresh 10% NBF solution, and fixed for 2 h at RT. […]
Microglia migration towards laser-injured retinal regions was quantified from 3D RGB-images (CZI-files) of the fluorescently labeled retinal samples, a workflow and image analytics tool was applied that allowed a semi-automated volumetric quantitation of Iba1-positive pixel per image frame integrated over the Z-dimension. […] Subsequently, TIFF images were analyzed using IDL (Interactive Data Language, Version 6.4) in combination with Excel 2010 to compute RGB-channel-dependent threshold images (pdf-files) with a histogram between 1–255 A.U. pixel intensity. […] The sum of pixels displaying the determined threshold intensity or higher was calculated and finally integrated over the Z-dimension of the 3D image.

[2] = target: T1, Mouse MAGL (Mus musculus, UniProt O35678); assay: Mouse MAGL assay (brain); format: biochemical; settings: RG7774 10 µM; read-out: Mean ± SEM % inhibition of control, Mouse MAGL
T1 construct: Mouse brain or human U937 cell extracts (ATCC, Manassas, VI, USA); from tissue; host or cells: mouse brain, 100,000 g supernatant
T1 sequence (O35678 whole entry): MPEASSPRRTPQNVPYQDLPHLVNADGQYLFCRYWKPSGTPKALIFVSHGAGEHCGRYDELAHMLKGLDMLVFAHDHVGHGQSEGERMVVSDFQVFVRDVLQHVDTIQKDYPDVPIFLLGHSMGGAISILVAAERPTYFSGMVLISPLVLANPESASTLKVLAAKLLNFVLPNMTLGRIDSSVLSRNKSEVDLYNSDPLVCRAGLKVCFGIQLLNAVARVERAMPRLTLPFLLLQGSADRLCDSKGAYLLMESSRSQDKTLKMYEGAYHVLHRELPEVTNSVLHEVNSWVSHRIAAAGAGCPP
Experimental: The final supernatant was incubated with [^3H]-2-OG (10 µM) (ARC, MO, USA) at 37°C for 30 min as previously described, and reactions were stopped with a 2:1 (v/v) mixture of chloroform/methanol. [^3H]-glycerol release in the aqueous phase was measured by scintillation counting. […] Human supernatant (100 µg) was preincubated for 15 min at RT with 8 different concentrations of RG7774 (0.1-500 µM) in the incubation medium.

[3] = target: T2, endogenous CB2R (Homo sapiens, UniProt P34972); assay: Forskolin-stimulated cAMP in Jurkat cells; format: cell-based; settings: data not shown
T2 construct: endogenous CB2R in human Jurkat cells; endogenous in cells; host or cells: Jurkat cells
T2 sequence (P34972 whole entry): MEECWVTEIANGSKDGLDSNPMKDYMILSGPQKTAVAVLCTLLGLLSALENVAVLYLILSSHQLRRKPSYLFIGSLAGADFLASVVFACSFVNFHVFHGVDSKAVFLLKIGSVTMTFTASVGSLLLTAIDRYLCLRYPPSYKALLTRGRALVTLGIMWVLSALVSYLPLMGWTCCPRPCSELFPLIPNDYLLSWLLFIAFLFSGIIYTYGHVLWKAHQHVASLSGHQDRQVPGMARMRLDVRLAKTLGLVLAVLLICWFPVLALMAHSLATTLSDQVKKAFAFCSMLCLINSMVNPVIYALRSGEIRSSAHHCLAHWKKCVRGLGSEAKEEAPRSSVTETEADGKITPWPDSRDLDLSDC

[4] = system: Jurkat cells; assay: xCELLigence impedance assay in Jurkat cells; format: cell-based, human; settings: xCELLigence, 1 h
Experimental: Background impedance was determined in 96-well RTCA E-plates (Agilent Technologies, Santa Clara, CA, United States) coated with 150 μg/mL fibronectin/H2O (Sigma-Aldrich, St. Louis, MO, United States) and containing 50 μL RPMI 1640 assay medium (Fisher Scientific, Schwerte, Germany) 31870) with 10% fetal calf serum (FCS). Jurkat cells (200,000 cells per well) were seeded in 100 μL of growth medium, allowed to settle for 30 min at RT, and cultured overnight at 37°C and 5% CO2. Dose-response curves were generated by adding increasing concentrations of RG7774 to seeded Jurkat cells and performing impedance measurements (xCelligence RTCA M, Agilent Technologies, Santa Clara, CA, United States) at baseline and 1 h after treatment. Displacement experiments were performed by incubating seeded Jurkat cells with 10 μM SR144528, a CB2R-selective antagonist (Tocris Bioscience, Bristol, United Kingdom) or 10 μM RO6851228 (a CB2R-selective inverse agonist; in-house synthesis) in assay medium overnight at 37°C and 5% CO2. Cells were re-treated with 10 μM SR144528 or […] for 1 h and stimulated with 233 nM RG7774 in assay medium. […] Displacement data are presented as the percentage of the maximal normalized cell index determined after antagonist/inverse agonist treatment relative to the percentage of the normalized cell index at 109 nM RG7774 treatment.

[5] = system: sigma (non-selective) (h); assay: CEREP radioligand binding; parameters: species or system human; settings: radioligand [^3H]-DTG
Source text: Supplement Table1.docx, table 3: Supplementary Table S3. RG7774 binding to non-CB1R/CB2R receptors, ion channels, transporters, and enzymes (CEREP, Celle l’Evescault, France; http://www.cerep.fr). | column: % inhibition of control SB (n = 2)

[6] = Cerebrospinal fluid versus plasma concentration (data on file); format: in vivo; settings: cynomolgus monkeys

## Cn1nnnc1Cn1nnc2c(N3CC[C@H](O)C3)nc(C(C)(C)C)nc21 [RG7774, (S)-1-(5-tert-butyl-3-[(1-methyl-1H-tetrazol-5-yl)methyl]-3H-[1,2,3]triazolo[4,5-d]pyrimidin-7-yl)pyrrolidin-3-ol]
[1]; 3 mg/kg oral gavage
  reduction of microglia volumes in lasered versus non-lasered regions: 25%
[1]; 10 mg/kg oral gavage
  reduction of microglia volumes in lasered versus non-lasered regions: 41%
[2]
  inhibition at 10 µM: 2.7 ± 11.7%
[3]
  inhibition of forskolin-stimulated intracellular cAMP levels in Jurkat cells: did not inhibit
[4]
  EC50, cell index relative to maximal cell index of RG7774 at 233 nM: 10.8 nM and 10.8 ± 4.2 nM
[5]
  % inhibition of control SB (n = 2): –8.2%
[6]
  concentrations lower in cerebrospinal fluid than in plasma: approximately 10 fold
